What all share (assay type): functional
For assay [1], the system named is Candida albicans. The experiment in a line: Antifungal activity against Candida albicans isolate 03-2718 infected BALB/c mouse vaginitis model assessed as reduction in fungal load in vagina at 40 mg/kg, administered through oral gavage twice daily for 5 days measured on day 6 post inoculation.
Assay [2] deals with Candida albicans. The experiment in a line: Antifungal activity against Candida albicans isolate 03-2718 infected BALB/c mouse vaginitis model assessed as reduction in fungal load in vagina at 40 mg/kg, administered through oral gavage once daily for 5 days measured on day 6 post inoculation.
Assay [3] concerns Candida albicans. Description: Antifungal activity against Candida albicans isolate 03-2718 infected BALB/c mouse vaginitis model assessed as reduction in fungal load in vagina at 20 mg/kg, administered through oral gavage twice daily for 5 days measured on day 6 post inoculation.
Assay [4] relates to Candida albicans. The experiment in a line: Antifungal activity against Candida albicans isolate 03-2718 infected BALB/c mouse vaginitis model assessed as reduction in fungal load in vagina at 20 mg/kg, administered through oral gavage once daily for 5 days measured on day 6 post inoculation.
Assay [5] has as its system Candida albicans. The experiment in a line: Antifungal activity against Candida albicans isolate 03-2718 infected BALB/c mouse vaginitis model assessed as reduction in fungal load in vagina at 10 mg/kg, administered through oral gavage twice daily for 5 days measured on day 6 post inoculation.
For assay [6], the system named is Candida albicans. The experiment in a line: Antifungal activity against Candida albicans isolate 03-2718 infected BALB/c mouse vaginitis model assessed as reduction in fungal load in vagina at 10 mg/kg, administered through oral gavage once daily for 5 days measured on day 6 post inoculation.
The test system of assay [7] is Candida albicans. The experiment in a line: Antifungal activity against Candida albicans isolate 03-2718 infected BALB/c mouse vaginitis model assessed as reduction in fungal load in vagina at 5 mg/kg, administered through oral gavage twice daily for 5 days measured on day 6 post inoculation.
Assay [8] has as its system Candida albicans. The experiment in a line: Antifungal activity against Candida albicans isolate 03-2718 infected BALB/c mouse vaginitis model assessed as reduction in fungal load in vagina at 5 mg/kg, administered through oral gavage once daily for 5 days measured on day 6 post inoculation.
Assay [9] relates to Candida albicans. The experiment in a line: Antifungal activity against Candida albicans isolate 03-2718 infected BALB/c mouse vaginitis model assessed as reduction in fungal load in vagina at 40 mg/kg, administered through oral gavage twice daily for 5 days measured on day 1 post inoculation.
Assay [10] concerns Candida albicans. The experiment in a line: Antifungal activity against Candida albicans isolate 03-2718 infected BALB/c mouse vaginitis model assessed as reduction in fungal load in vagina at 40 mg/kg, administered through oral gavage once daily for 5 days measured on day 1 post inoculation.
Assay [11] concerns Candida albicans. Description: Antifungal activity against Candida albicans isolate 03-2718 infected BALB/c mouse vaginitis model assessed as reduction in fungal load in vagina at 20 mg/kg, administered through oral gavage twice daily for 5 days measured on day 1 post inoculation.
The subject of assay [12] is Candida albicans. Description: Antifungal activity against Candida albicans isolate 03-2718 infected BALB/c mouse vaginitis model assessed as reduction in fungal load in vagina at 20 mg/kg, administered through oral gavage once daily for 5 days measured on day 1 post inoculation.
The subject of assay [13] is Candida albicans. The experiment in a line: Antifungal activity against Candida albicans isolate 03-2718 infected BALB/c mouse vaginitis model assessed as reduction in fungal load in vagina at 10 mg/kg, administered through oral gavage twice daily for 5 days measured on day 1 post inoculation.
In assay [14] the test system is Candida albicans. The experiment in a line: Antifungal activity against Candida albicans isolate 03-2718 infected BALB/c mouse vaginitis model assessed as reduction in fungal load in vagina at 10 mg/kg, administered through oral gavage once daily for 5 days measured on day 1 post inoculation.
Assay [15] has as its system Candida albicans. The experiment in a line: Antifungal activity against Candida albicans isolate 03-2718 infected BALB/c mouse vaginitis model assessed as reduction in fungal load in vagina at 5 mg/kg, administered through oral gavage twice daily for 5 days measured on day 1 post inoculation.
Assay [16] relates to Candida albicans. The experiment in a line: Antifungal activity against Candida albicans isolate 03-2718 infected BALB/c mouse vaginitis model assessed as reduction in fungal load in vagina at 5 mg/kg, administered through oral gavage once daily for 5 days measured on day 1 post inoculation.
Assay [17] has as its system Candida albicans. Description: Antifungal activity against Candida albicans isolate 03-2718 after 48 hrs. As to conditions: isolate 03-2718, 48 h.

In brackets after ≈: the same amount, converted by molar mass.

We go through two compounds from ChEMBL document CHEMBL1649223, “Efficacy of albaconazole against Candida albicans in a vaginitis model” (2009).

With `C[C@@H](n1cnc2cc(Cl)ccc2c1=O)[C@](O)(Cn1cncn1)c1ccc(F)cc1F` [ALBACONAZOLE], the log10cfu in the assay with Candida albicans [1] is 2.24; in the assay on Candida albicans [2], 3.13; with Candida albicans [3], 3.34; in the assay with Candida albicans [4] it was 3.81; in the assay with Candida albicans [5], 3.83; in the assay with Candida albicans [6], 4.33. Also, the log10cfu in the assay on Candida albicans [7] amounted to 4.82; in the assay on Candida albicans [8], 4.99; with Candida albicans [9] it was 5.79; in the assay on Candida albicans [10], 5.62; in the assay with Candida albicans [11] it was 5.48; in the assay on Candida albicans [12] it was 5.13. In addition, the log10cfu in the assay with Candida albicans [13] came out at 5.43; with Candida albicans [14], 5.07; in the assay on Candida albicans [15] it was 5.46; in the assay on Candida albicans [16] it was 5.06. In addition, 0.5 µg/mL (≈ 1.16 µM) was the least that counted as inhibitory against Candida albicans [17] (MIC).

Consider `OC(Cn1cncn1)(Cn1cncn1)c1ccc(F)cc1F` [FLUCONAZOLE], for which the log10cfu is on record as 3.74 with Candida albicans [3], 4.51 with Candida albicans [4], 5.9 with Candida albicans [11] and 5.51 in the assay with Candida albicans [12].
